molecular target: human H-PGDS (Homo sapiens, UniProt O60760); assay: Hematopoietic prostaglandin D synthase (H-PGDS) inhibiting action, [14C]PGH2 to PGD2 conversion, TLC radioassay; type: biochemical; details: compound 0.1 μM; inhibition rate relative to solvent control group; [14C] prostaglandin H2 10 μM, 25° C.; read-out: H-PGDS inh. (% at 0.1 μM)
Protocol: The test was carried out according to the method of Urade, Y. et al. (J. Biol. Chem., 262, 3820-3825, (1987)). More specifically, a reaction mixture (49 μL) containing 100 mM Tris-HCl (pH 8.0), 1 mM reduced form glutathione, 0.1 mg/mL γ-globulin, human H-PGDS (q.s.), and a compound (0.1 μM) was preincubated at 25° C. for 5 minutes. A DMSO solution (final concentration: 1%) was added to the solvent control group. Subsequently, 1 μL of [^14C] prostaglandin H2 (final concentration: 10 μM) was added to start the reaction. One minute after the start of the reaction, 250 μL of a reaction stopper solution (diethylether/methanol/1M citric acid (30/4/1)) cooled with ice was added to stop the reaction. After the reaction was stopped, 50 μL of the upper layer portion (organic solvent phase) was applied to a TLC plate and developed at −20° C. for 45 minutes (developing solvent: diethylether/methanol/acetic acid (90/2/1)). After the TLC plate was dried and exposed to an imaging plate for 1 to 24 hours, the radioactivity corresponding to prostaglandin D2 (PGD2) was analyzed using an image analyzer (produced by Fujifilm Corporation). The area (%) occupied by the PGD2 band per lane and the inhibition rate (%) of each Example compound at 0.1 μM relative to the control group in each experiment were calculated.

Chain of human H-PGDS (O60760 whole entry): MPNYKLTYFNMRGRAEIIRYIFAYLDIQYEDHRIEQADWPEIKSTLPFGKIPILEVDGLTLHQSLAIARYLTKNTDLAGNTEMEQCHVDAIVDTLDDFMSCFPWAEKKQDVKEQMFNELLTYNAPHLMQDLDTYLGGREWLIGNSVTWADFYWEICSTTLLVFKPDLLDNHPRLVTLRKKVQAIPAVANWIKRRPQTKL

inhibition at 0.1 µM [%]	SMILES
77.8	O=C(NC1CCN(c2ccc(CCn3ccnn3)cc2)CC1)N1CCC(=Cc2cc(F)ccc2F)CC1 [Example 34, N-(1-(4-(2-(1H-1,2,3-triazol-1-yl)ethyl)phenyl)piperidin-4-yl)-4-(2,5-difluorobenzylidene)piperidine-1-carboxamide]
77.2	O=C(NC1CCN(CC(F)(F)F)CC1)N1CCC(=Cc2cc(F)ccc2F)CC1 [Example 35, 4-(2,5-difluorobenzylidene)-N-(1-(2,2,2-trifluoroethyl)piperidin-4-yl)piperidine-1-carboxamide]
58.3	COc1ccc(CN2CCC(NC(=O)N3CCC(=Cc4cc(F)ccc4F)CC3)CC2)cc1Cl [Example 36, N-(1-(3-chloro-4-methoxybenzyl)piperidin-4-yl)-4-(2,5-difluorobenzylidene)piperidine-1-carboxamide]
64.8	N#Cc1cccc(CN2CCC(NC(=O)N3CCC(=Cc4cc(F)ccc4F)CC3)CC2)c1 [Example 37, N-(1-(3-cyanobenzyl)piperidin-4-yl)-4-(2,5-difluorobenzylidene)piperidine-1-carboxamide]
82.9	O=C(NC1CCN(C(=O)C(F)(F)F)CC1)N1CCC(=Cc2cc(F)ccc2F)CC1 [Example 38, 4-(2,5-difluorobenzylidene)-N-(1-(2,2,2-trifluoroacetyl)piperidin-4-yl)piperidine-1-carboxamide]
71.4	CC(F)(F)C(=O)N1CCC(NC(=O)N2CCC(=Cc3cc(F)ccc3F)CC2)CC1 [Example 40, 4-(2,5-difluorobenzylidene)-N-(1-(2,2-difluoropropanoyl)piperidin-4-yl)piperidine-1-carboxamide]
59	COC(=O)c1ccc(N2CCC(NC(=O)N3CCC(=Cc4cc(F)ccc4F)CC3)CC2)cc1 [Example 41, Methyl 4-(4-(4-(2,5-difluorobenzylidene)piperidine-1-carboxamido)piperidin-1-yl)benzoate]
61.4	O=C(Nc1cnc2ccccc2c1)N1CCC(=Cc2cc(F)ccc2F)CC1 [Example 42, 4-(2,5-difluorobenzylidene)-N-(quinolin-3-yl)piperidine-1-carboxamide]
68	O=C(NC1CCN(C(=O)C(F)F)CC1)N1CCC(=Cc2cc(F)ccc2F)CC1 [Example 43, N-(1-(2,2-difluoroacetyl)piperidin-4-yl)-4-(2,5-difluorobenzylidene)piperidine-1-carboxamide]
48.8	O=C(NC1CCN(C(=O)C2CC2)CC1)N1CCC(=Cc2cc(F)ccc2F)CC1 [Example 45, N-(1-(cyclopropanecarbonyl)piperidin-4-yl)-4-(2,5-difluorobenzylidene)piperidine-1-carboxamide]
77.3	CC(C)(C)C(=O)N1CCC(NC(=O)N2CCC(=Cc3cc(F)ccc3F)CC2)CC1 [Example 46, 4-(2,5-difluorobenzylidene)-N-(1-pivaloylpiperidin-4-yl)piperidine-1-carboxamide]
62	O=C(NC1CCN(C(=O)c2ccccc2)CC1)N1CCC(=Cc2cc(F)ccc2F)CC1 [Example 47, N-(1-benzoylpiperidin-4-yl)-4-(2,5-difluorobenzylidene)piperidine-1-carboxamide]
65.7	CC(C)C(=O)N1CCC(NC(=O)N2CCC(=Cc3cc(F)ccc3F)CC2)CC1 [Example 48, 4-(2,5-difluorobenzylidene)-N-(1-isobutyrylpiperidin-4-yl)piperidine-1-carboxamide]
39.6	O=C(NC1CCN(C(=O)C2CCCCC2)CC1)N1CCC(=Cc2cc(F)ccc2F)CC1 [Example 49, N-(1-(cyclohexanecarbonyl)piperidin-4-yl)-4-(2,5-difluorobenzylidene)piperidine-1-carboxamide]
59.9	O=C(NC1CCN(C(=O)C2CCC2)CC1)N1CCC(=Cc2cc(F)ccc2F)CC1 [Example 50, N-(1-(cyclobutanecarbonyl)piperidin-4-yl)-4-(2,5-difluorobenzylidene)piperidine-1-carboxamide]
50	O=C(NC1CCN(C(=O)c2ccccn2)CC1)N1CCC(=Cc2cc(F)ccc2F)CC1 [Example 51, 4-(2,5-difluorobenzylidene)-N-(1-picolinoylpiperidin-4-yl)piperidine-1-carboxamide]
74.6	CN(C)C(=O)N1CCC(NC(=O)N2CCC(=Cc3cc(F)ccc3F)CC2)CC1 [Example 52, 4-(4-(2,5-difluorobenzylidene)piperidine-1-carboxamido)-N,N-dimethylpiperidine-1-carboxamide]

inhibition at 0.1 µM [%]	SMILES
69	O=C(NC1CCN(C(=O)C2CCCC2)CC1)N1CCC(=Cc2cc(F)ccc2F)CC1 [Example 53, N-(1-(cyclopentanecarbonyl)piperidin-4-yl)-4-(2,5-difluorobenzylidene)piperidine-1-carboxamide]
85.9	O=C(NC1CCN(C(=O)c2cccs2)CC1)N1CCC(=Cc2cc(F)ccc2F)CC1 [Example 54, 4-(2,5-difluorobenzylidene)-N-(1-(thiophene-2-carbonyl)piperidin-4-yl)piperidine-1-carboxamide]
70.9	Cn1cccc1C(=O)N1CCC(NC(=O)N2CCC(=Cc3cc(F)ccc3F)CC2)CC1 [Example 55, 4-(2,5-difluorobenzylidene)-N-(1-(1-methyl-1H-pyrrole-2-carbonyl)piperidin-4-yl)piperidine-1-carboxamide]
59.3	O=C(Nc1ccccc1)N1CCC(NC(=O)N2CCC(=Cc3cc(F)ccc3F)CC2)CC1 [Example 56, 4-(2,5-difluorobenzylidene)-N-(1-(phenylcarbamoyl)piperidin-4-yl)piperidine-1-carboxamide]
62.3	O=C(NC1CCN(C(=O)N2CCCCC2)CC1)N1CCC(=Cc2cc(F)ccc2F)CC1 [Example 57, 4-(2,5-difluorobenzylidene)-N-(1-(piperidine-1-carbonyl)piperidin-4-yl)piperidine-1-carboxamide]
80.8	O=C(Nc1ncc(C(=O)N2CCOCC2)s1)N1CCC(=Cc2cc(F)ccc2F)CC1 [Example 58, 4-(2,5-difluorobenzylidene)-N-(5-(morpholine-4-carbonyl)thiazol-2-yl)piperidine-1-carboxamide]
76.8	O=C(NC1CCN(C(=O)c2cscn2)CC1)N1CCC(=Cc2cc(F)ccc2F)CC1 [Example 59, 4-(2,5-difluorobenzylidene)-N-(1-(thiazole-4-carbonyl)piperidin-4-yl)piperidine-1-carboxamide]
67.1	O=C(NC1CCN(C(=O)c2ccccc2F)CC1)N1CCC(=Cc2cc(F)ccc2F)CC1 [Example 60, 4-(2,5-difluorobenzylidene)-N-(1-(2-fluorobenzoyl)piperidin-4-yl)piperidine-1-carboxamide]
67.7	O=C(NC1CCN(C(=O)c2cccc(F)c2)CC1)N1CCC(=Cc2cc(F)ccc2F)CC1 [Example 61, 4-(2,5-difluorobenzylidene)-N-(1-(3-fluorobenzoyl)piperidin-4-yl)piperidine-1-carboxamide]
54.2	Cc1cccnc1C(=O)N1CCC(NC(=O)N2CCC(=Cc3cc(F)ccc3F)CC2)CC1 [Example 62, 4-(2,5-difluorobenzylidene)-N-(1-(3-methylpicolinoyl)piperidin-4-yl)piperidine-1-carboxamide]
64.7	Cc1ccnc(C(=O)N2CCC(NC(=O)N3CCC(=Cc4cc(F)ccc4F)CC3)CC2)c1 [Example 63, 4-(2,5-difluorobenzylidene)-N-(1-(4-methylpicolinoyl)piperidin-4-yl)piperidine-1-carboxamide]
51	O=C(Nc1ccccn1)N1CCC(NC(=O)N2CCC(=Cc3cc(F)ccc3F)CC2)CC1 [Example 64, 4-(2,5-difluorobenzylidene)-N-(1-(pyridin-2-ylcarbamoyl)piperidin-4-yl)piperidine-1-carboxamide]
55.4	O=C(Nc1nccs1)N1CCC(NC(=O)N2CCC(=Cc3cc(F)ccc3F)CC2)CC1 [Example 65, 4-(2,5-difluorobenzylidene)-N-(1-(thiazol-2-ylcarbamoyl)piperidin-4-yl)piperidine-1-carboxamide]
68.6	O=C(NC1CCN(C(=O)c2cccc(F)n2)CC1)N1CCC(=Cc2cc(F)ccc2F)CC1 [Example 66, 4-(2,5-difluorobenzylidene)-N-(1-(6-fluoropicolinoyl)piperidin-4-yl)piperidine-1-carboxamide]
51.7	O=C(Nc1ccon1)N1CCC(NC(=O)N2CCC(=Cc3cc(F)ccc3F)CC2)CC1 [Example 67, 4-(2,5-difluorobenzylidene)-N-(1-(isoxazol-3-ylcarbamoyl)piperidin-4-yl)piperidine-1-carboxamide]
59.8	O=C(Nc1ccc(OCc2ccccc2)cc1)N1CCC(=Cc2ccccn2)CC1 [Example 68, N-(4-(benzyloxy)phenyl)-4-(pyridin-2-ylmethylene)piperidine-1-carboxamide]

SMILES	inhibition at 0.1 µM [%]
O=C(NC1CCN(CC(F)F)CC1)N1CCC(=Cc2cc(F)ccc2F)CC1 [Example 44, 4-(2,5-difluorobenzylidene)-N-(1-(2,2-difluoroethyl)piperidin-4-yl)piperidine-1-carboxamide]	81
